Active and inactive are the calls of the source. The calls are words filed in the database; no cut-off is given here.
How the values were obtained:
[1] = molecular target: Matrix metalloproteinase-9 (Homo sapiens) (UniProt P14780); experiment: Inhibition of recombinant human MMP9 at 10 uM using NFF2 as substrate by fluorometric method relative to control
Procathepsin L [2] = molecular target: T1, Procathepsin L (Homo sapiens, UniProt P07711); experiment: Inhibition of human liver cathepsin-L at 10 uM using Z-FR-AMC as substrate preincubated for 5 mins followed by substrate addition measured at 15 sec interval for 5 mins in presence of 0.01% Brij35 by fluorometric method relative to control
Target sequence in this assay (P07711 114-333 limits assumed): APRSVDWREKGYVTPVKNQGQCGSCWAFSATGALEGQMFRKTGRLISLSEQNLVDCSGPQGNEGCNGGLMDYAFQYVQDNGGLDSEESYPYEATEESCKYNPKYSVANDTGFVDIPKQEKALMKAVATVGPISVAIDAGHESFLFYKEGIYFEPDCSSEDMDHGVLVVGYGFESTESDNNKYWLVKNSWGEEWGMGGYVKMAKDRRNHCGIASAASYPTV

[3] = Retention time in pH 8.6 glycine buffer after 48 hrs at 37 degC by HPLC method
Procathepsin L [4] = molecular target: T1, Procathepsin L; experiment: Covalent/reversible inhibition of human liver cathepsin-L using Z-FR-AMC as substrate preincubated for 5 mins followed by substrate addition measured at 15 sec interval for 5 mins by Morrison's equation analysis; conditions: read-out: Ki(app)
Target sequence in this assay (P07711 whole entry): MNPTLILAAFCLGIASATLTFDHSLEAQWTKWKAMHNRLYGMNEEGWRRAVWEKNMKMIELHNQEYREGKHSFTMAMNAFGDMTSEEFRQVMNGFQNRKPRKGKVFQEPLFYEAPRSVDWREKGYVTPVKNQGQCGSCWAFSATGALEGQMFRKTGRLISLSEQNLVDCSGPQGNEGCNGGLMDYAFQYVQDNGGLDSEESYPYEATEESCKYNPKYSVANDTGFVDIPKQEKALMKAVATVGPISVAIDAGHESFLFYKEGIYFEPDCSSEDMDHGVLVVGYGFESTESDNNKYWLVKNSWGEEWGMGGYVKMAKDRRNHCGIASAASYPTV

Procathepsin L [5] = molecular target: T1, Procathepsin L; experiment: Inhibition of human liver cathepsin-L at 10 uM using Z-FR-AMC as substrate preincubated for 5 mins followed by substrate addition measured at 15 sec interval for 5 mins in presence of 0.1% Tween or 0.1% CHAPS by fluorometric method relative to control
Target sequence in this assay (P07711 114-333 limits assumed): as the sequence (P07711 114-333 limits assumed) above

MDA-MB-231 = experiment: Anti-migratory activity against human MDA-MB-231 cells assessed as delay in wound closure at 15 uM after 42 hrs by scratch assay; type: functional, cell-based
[6] = molecular target: Matrix metalloproteinase-9 (Homo sapiens) (UniProt P14780); experiment: Inhibition of recombinant human MMP9 at 1 uM using NFF2 as substrate by fluorometric method relative to control
[7] = Aqueous solubility of the compound in water at 2.02 mg by reversed phase column chromatography; type: physicochemical
Caspase-3 (Homo sapiens) = molecular target: T2, Caspase-3 (Homo sapiens) (UniProt P42574); experiment: Inhibition of recombinant human caspase-3 at 1 uM using Ac-DMQD-AMC as substrate measured at 15 sec interval over 30 mins by fluorogenic assay relative to control
T2 sequence (whole entry): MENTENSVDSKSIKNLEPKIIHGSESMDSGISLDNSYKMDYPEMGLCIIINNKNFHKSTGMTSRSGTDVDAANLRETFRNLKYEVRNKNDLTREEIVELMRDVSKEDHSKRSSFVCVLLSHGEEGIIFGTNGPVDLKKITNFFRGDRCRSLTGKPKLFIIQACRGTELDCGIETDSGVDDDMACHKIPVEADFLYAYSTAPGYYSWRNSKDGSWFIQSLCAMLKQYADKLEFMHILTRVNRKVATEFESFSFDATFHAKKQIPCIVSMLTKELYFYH

Cathepsin B [8] = molecular target: T3, Cathepsin B (Homo sapiens, UniProt P07858); experiment: Inhibition of human liver cathepsin-B using Z-RR-AMC as substrate preincubated for 5 mins followed by substrate addition measured for 5 mins by fluorometric method
Procathepsin L [9] = molecular target: T1, Procathepsin L; experiment: Inhibition of human liver cathepsin-L using Z-FR-AMC as substrate preincubated for 5 mins followed by substrate addition measured at 15 sec interval for 5 mins by fluorometric method
Target sequence in this assay (P07711 whole entry): as the sequence (P07711 whole entry) above

Cathepsin B [10] = molecular target: T3, Cathepsin B; experiment: Inhibition of human liver cathepsin-B at 10 uM using Z-RR-AMC as substrate preincubated for 5 mins followed by substrate addition measured for 5 mins by fluorometric method relative to control
Procathepsin L [11] = molecular target: T1, Procathepsin L; experiment: Time-dependent inhibition of human liver cathepsin-L assessed as association constant up to 20 uM using 5 uM Z-FR-AMC as substrate preincubated with enzyme followed by substrate addition by fluorometric method
Target sequence in this assay (P07711 114-333 limits assumed): as the sequence (P07711 114-333 limits assumed) above

Procathepsin L [12] = molecular target: T1, Procathepsin L; experiment: Time-dependent inhibition of human liver cathepsin-L up to 20 uM using Z-FR-AMC as substrate preincubated with enzyme followed by substrate addition by fluorometric method
Target sequence in this assay (P07711 114-333 limits assumed): as above

Procathepsin L [13] = molecular target: T1, Procathepsin L; experiment: Time-dependent inhibition of human liver cathepsin-L assessed as dissociation constant up to 20 uM using 10 uM Z-FR-AMC as substrate preincubated with enzyme followed by substrate addition by fluorometric method
Target sequence in this assay (P07711 114-333 limits assumed): as above

Procathepsin L [14] = molecular target: T1, Procathepsin L; experiment: Time-dependent inhibition of human liver cathepsin-L assessed as association constant up to 20 uM using 10 uM Z-FR-AMC as substrate preincubated with enzyme followed by substrate addition by fluorometric method
Target sequence in this assay (P07711 114-333 limits assumed): as above

[15] = Stability in water assessed as compound hydrolysis at 20 uM after 1 week at 4 degC by HPLC method; type: physicochemical; conditions: buffer, 168 h
[16] = Aqueous solubility of the compound in water at 4 g by reversed phase column chromatography; type: physicochemical
[17] = Stability in pH 8.6 glycine buffer assessed as compound hydrolysis after 48 hrs at 37 degC in absence of alkaline phosphatase by HPLC method
[18] = Prodrug activation in water assessed as assessed as KGP94 formation at 20 uM after 1 week at 4 degC by HPLC method
[19] = Solubility in water; type: physicochemical; conditions: buffer
[20] = Prodrug activation in pH 8.6 glycine buffer assessed as KGP94 formation after 48 hrs at 37 degC in absence of alkaline phosphatase by HPLC method
[21] = Cytotoxicity against HUVEC assessed as growth inhibition after 48 hrs by SRB assay; type: cell-based; conditions: human, HUVEC cells

Sequence of Matrix metalloproteinase-9 (Homo sapiens) (P14780 whole entry): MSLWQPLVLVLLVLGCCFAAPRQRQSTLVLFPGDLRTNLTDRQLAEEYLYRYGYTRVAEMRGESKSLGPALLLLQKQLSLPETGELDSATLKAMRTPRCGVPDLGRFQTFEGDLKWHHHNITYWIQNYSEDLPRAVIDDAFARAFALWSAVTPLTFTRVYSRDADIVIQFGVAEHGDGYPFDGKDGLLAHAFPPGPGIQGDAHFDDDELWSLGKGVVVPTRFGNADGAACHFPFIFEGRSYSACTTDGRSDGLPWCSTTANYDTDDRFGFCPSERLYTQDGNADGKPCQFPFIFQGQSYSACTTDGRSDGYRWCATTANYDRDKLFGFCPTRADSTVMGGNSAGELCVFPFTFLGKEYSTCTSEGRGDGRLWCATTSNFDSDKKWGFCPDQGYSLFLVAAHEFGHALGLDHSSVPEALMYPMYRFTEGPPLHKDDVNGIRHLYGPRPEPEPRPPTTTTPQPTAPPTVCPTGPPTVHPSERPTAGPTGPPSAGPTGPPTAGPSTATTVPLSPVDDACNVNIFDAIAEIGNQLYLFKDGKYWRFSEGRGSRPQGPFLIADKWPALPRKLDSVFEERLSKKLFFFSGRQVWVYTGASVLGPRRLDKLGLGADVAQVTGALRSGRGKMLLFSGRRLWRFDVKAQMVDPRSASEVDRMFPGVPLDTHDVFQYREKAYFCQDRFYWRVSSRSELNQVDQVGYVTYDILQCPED

Compound | inhibition (Procathepsin L [2]) [%] | inhibition (Procathepsin L [5]) | IC50 (Cathepsin B [8]) [µM] | IC50 (Procathepsin L [9]) [µM] | inhibition (Cathepsin B [10]) [%] | Activity (MDA-MB-231) | other results
NC(=S)N/N=C(\c1cccc(O)c1)c1cccc(Br)c1 | 88 to 91 | Active | – | – | – | Active | inhibition [1]: 15%; Retention time [3]: 5.4 min; Ki (Procathepsin L [4]): 0.0037 µM; inhibition [6]: 3%; solubility [7]: < 0.67 mg/mL; inhibition (Caspase-3 (Homo sapiens)): 4.5%
COc1cc(OC)cc(/C(=N\NC(N)=S)c2cccc(Br)c2)c1 | 46 | – | > 10 | > 10 | > 50 | – | –
NC(=S)N/N=C(\c1cccc(O)c1)c1cc(Br)cc(Br)c1 | 94 | Active | > 10 | 0.202 | > 50 | Active | K (Procathepsin L [11]): 2 ×10³ /M/s; Ki (Procathepsin L [4]): 0.0084 µM; TDI (Procathepsin L [12]): Active; K (Procathepsin L [13]): 1 ×10⁻³ /s; K (Procathepsin L [14]): 1.5 ×10³ /M/s
NC(=S)N/N=C(/c1cccc(Br)c1)c1cccc(OP(=O)([O-])[O-])c1.[Na+].[Na+] | 18 | < 50% | – | > 10 | > 50 | Active | Retention time [3]: 1.6 min; Stability [15]: Stable; solubility [16]: > 400 mg/mL; Drug degradation [17]: 5.6%; Drug metabolism [18]: Metabolite not detected; solubility [19]: Soluble; Drug metabolism [20]: Metabolite detected; GI50 at 48 h [21]: 20.2 µM
COc1cc(OC)cc(/C(=N\NC(N)=S)c2cc(Br)cc(Br)c2)c1 | 52 | – | > 10 | ≥ 10 | > 50 | – | –

Continued, in another order:

inhibition (Procathepsin L [2]) [%] | inhibition (Procathepsin L [5]) | IC50 (Cathepsin B [8]) [µM] | IC50 (Procathepsin L [9]) [µM] | inhibition (Cathepsin B [10]) [%] | Compound | Activity (MDA-MB-231) | other results
44 | – | > 10 | > 10 | > 50 | NC(=S)N/N=C(\c1cc(O)cc(O)c1)c1cc(Br)cc(Br)c1 | – | –
23 | – | > 10 | ≥ 10 | > 50 | NC(=S)N/N=C(\c1cc(O)cc(O)c1)c1cccc(Br)c1 | – | –
40 | – | > 10 | > 10 | > 50 | NC(=S)NN=C(c1cc(O)cc(Br)c1)c1cc(O)cc(Br)c1 | – | –
